According to patent US9833497B2, “Human originated EGF domain proteins and use of the same” (CHENGDU SOURCEBIO LIMITED-LIABILITY COMPANY, priority 2013, dated 2017):

Tests used:
Type in all cases: cell-based
E. coli DH5α = experiment: Antibacterial activity: MIC and growth curve against E. coli DH5α in 96-well plate; conditions: minimal inhibitory concentration against E. coli DH5α; 96-well plate, 5×10^5 CFU/mL, 37° C., judged after 8 h
Outline: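 Log-phase DH5α (OD600 about 0.5, 37° C, 185 rpm in LB) was pelleted, resuspended in fresh LB and seeded at 5×10^5 CFU/mL with recombinant protein at 50, 25 and 12.5 μg/mL (two-fold series), in triplicate. Plates were shaken at 175 rpm, 37° C, and OD600 was read every 30 min. MIC was the lowest concentration with no growth.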

E. coli BL21 = experiment: MIC against Gram-negative bacteria: E. coli BL21; conditions: 5×10^5 CFU/mL
Outline: (§1)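 Bacteria grown in LB at 37° C to McFarland 0.5, resuspended and seeded at 5×10^5 CFU/mL in 96-well plates. Purified human EGF-domain proteins two-fold serially diluted, triplicate wells; cultured at 37° C, shaking 175 rpm. MIC = lowest protein concentration with no growth.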

Pseudomonas aeruginosa = experiment: MIC against Gram-negative bacteria: Pseudomonas aeruginosa; conditions: 5×10^5 CFU/mL
Outline: as §1

Klebsiella pneumonia = experiment: MIC against Gram-negative bacteria: Klebsiella pneumonia; conditions: 5×10^5 CFU/mL
Outline: as §1

Enterobacter cloacae = experiment: MIC against Gram-negative bacteria: Enterobacter cloacae; conditions: 5×10^5 CFU/mL
Outline: as §1

Aeromonas hydrophila = experiment: MIC against Gram-negative bacteria: Aeromonas hydrophila; conditions: 5×10^5 CFU/mL
Outline: as §1

Citrobacter diversus = experiment: MIC against Gram-negative bacteria: Citrobacter diversus; conditions: 5×10^5 CFU/mL
Outline: as §1

Moraxella catarrhalis = experiment: MIC against Gram-negative bacteria: Moraxella catarrhalis; conditions: 5×10^5 CFU/mL
Outline: as §1

Proteus mirabilis = experiment: MIC against Gram-negative bacteria: Proteus mirabilis; conditions: 5×10^5 CFU/mL
Outline: as §1

Proteus vulgaris = experiment: MIC against Gram-negative bacteria: Proteus vulgaris; conditions: 5×10^5 CFU/mL
Outline: as §1

Serratia marcescens = experiment: MIC against Gram-negative bacteria: Serratia marcescens; conditions: 5×10^5 CFU/mL
Outline: as §1

[1] = E. coli BL21, 10 h cultivation at 37° C.
[2] = E. coli BL21, 96-well plate, 37° C., 10 h
[3] = Pseudomonas aeruginosa, 96-well plate, 37° C., 10 h
[4] = Klebsiella pneumonia, 96-well plate, 37° C., 10 h
[5] = Enterobacter cloacae, 96-well plate, 37° C., 10 h
[6] = Aeromonas hydrophila, 96-well plate, 37° C., 10 h
[7] = Citrobacter diversus, 96-well plate, 37° C., 10 h
[8] = Moraxella catarrhalis, 96-well plate, 37° C., 10 h
[9] = Proteus mirabilis, 96-well plate, 37° C., 10 h
[10] = Proteus vulgaris, 96-well plate, 37° C., 10 h
[11] = Serratia marcescens, 96-well plate, 37° C., 10 h

PRT733 (SSNGCSNNMNACQQICLPVPGGLFSCACATGFKLNPDNRSCS; listed as Homo sapiens)
50 µg/mL: MIC (E. coli DH5α) | MIC P. aeruginosa (Pseudomonas aeruginosa; 96-well plate, 37° C., 10 h) | MIC E. cloacae (Enterobacter cloacae; 96-well plate, 37° C., 10 h) | MIC M. catarrhalis (Moraxella catarrhalis; 96-well plate, 37° C., 10 h)
12.5 µg/mL: MIC E. coli BL21 (E. coli BL21; 96-well plate, 37° C., 10 h) | MIC K. pneumonia (Klebsiella pneumonia; 96-well plate, 37° C., 10 h) | MIC A. hydrophila (Aeromonas hydrophila; 96-well plate, 37° C., 10 h) | MIC P. vulgaris (Proteus vulgaris; 96-well plate, 37° C., 10 h)
25 µg/mL: MIC C. diversus (Citrobacter diversus; 96-well plate, 37° C., 10 h) | MIC P. mirabilis (Proteus mirabilis; 96-well plate, 37° C., 10 h) | MIC S. marcescens (Serratia marcescens; 96-well plate, 37° C., 10 h)

PRT1471 (GKNWCEEDMENGGCEYLCLPAPQINDHSPKYTCSCPSGYNVEENGRDCQ; listed as Homo sapiens)
50 µg/mL: MIC against P. aeruginosa (Pseudomonas aeruginosa; Pseudomonas aeruginosa, 10 h cultivation at 37° C.) | MIC against E. cloacae (Enterobacter cloacae; Enterobacter cloacae, 10 h cultivation at 37° C.) | MIC against C. diversus (Citrobacter diversus; Citrobacter diversus, 10 h cultivation at 37° C.) | MIC against P. vulgaris (Proteus vulgaris; Proteus vulgaris, 10 h cultivation at 37° C.)
25 µg/mL: MIC against E. coli BL21 (E. coli BL21; [1]) | MIC against A. hydrophila (Aeromonas hydrophila; Aeromonas hydrophila, 10 h cultivation at 37° C.) | MIC against M. catarrhalis (Moraxella catarrhalis; Moraxella catarrhalis, 10 h cultivation at 37° C.) | MIC against P. mirabilis (Proteus mirabilis; Proteus mirabilis, 10 h cultivation at 37° C.) | MIC against S. marcescens (Serratia marcescens; Serratia marcescens, 10 h cultivation at 37° C.)
12.5 µg/mL: MIC (E. coli DH5α) | MIC against K. pneumonia (Klebsiella pneumonia; Klebsiella pneumonia, 10 h cultivation at 37° C.)

PRT127 (CSGHCTSYGTNCENGGKCLERYHGYSCDCSNTAYDGTFCN; listed as Homo sapiens)
12.5 µg/mL: MIC (E. coli DH5α) | MIC (μg/mL) E. coli BL21 (E. coli BL21; [2]) | MIC (μg/mL) P. aeruginosa (Pseudomonas aeruginosa; [3]) | MIC (μg/mL) E. cloacae (Enterobacter cloacae; [5]) | MIC (μg/mL) C. diversus (Citrobacter diversus; [7]) | MIC (μg/mL) M. catarrhalis (Moraxella catarrhalis; [8]) | MIC (μg/mL) P. mirabilis (Proteus mirabilis; [9]) | MIC (μg/mL) P. vulgaris (Proteus vulgaris; [10]) | MIC (μg/mL) S. marcescens (Serratia marcescens; [11])
25 µg/mL: MIC (μg/mL) K. pneumonia (Klebsiella pneumonia; [4]) | MIC (μg/mL) A. hydrophila (Aeromonas hydrophila; [6])

PRT91 (DTNECIQFPFVCPRDKPVCVNTYGSYRCRTNKKCSRGYEPNEDGTAC; listed as Homo sapiens)
50 µg/mL: MIC (μg/mL) P. vulgaris (Proteus vulgaris; [10])
12.5 µg/mL: MIC (E. coli DH5α) | MIC (μg/mL) E. coli BL21 (E. coli BL21; [2]) | MIC (μg/mL) P. aeruginosa (Pseudomonas aeruginosa; [3]) | MIC (μg/mL) K. pneumonia (Klebsiella pneumonia; [4]) | MIC (μg/mL) E. cloacae (Enterobacter cloacae; [5]) | MIC (μg/mL) C. diversus (Citrobacter diversus; [7]) | MIC (μg/mL) P. mirabilis (Proteus mirabilis; [9]) | MIC (μg/mL) S. marcescens (Serratia marcescens; [11])
25 µg/mL: MIC (μg/mL) A. hydrophila (Aeromonas hydrophila; [6]) | MIC (μg/mL) M. catarrhalis (Moraxella catarrhalis; [8])

PRT597 (CDCNRAGTQKPICDPDTGMCRCREGVSGQRCDRCARGHSQEFPTCLQ; listed as Homo sapiens)
25 µg/mL: MIC (E. coli DH5α) | MIC E. cloacae (Enterobacter cloacae; 96-well plate, 37° C., 10 h) | MIC C. diversus (Citrobacter diversus; 96-well plate, 37° C., 10 h) | MIC P. vulgaris (Proteus vulgaris; 96-well plate, 37° C., 10 h)
12.5 µg/mL: MIC E. coli BL21 (E. coli BL21; 96-well plate, 37° C., 10 h) | MIC K. pneumonia (Klebsiella pneumonia; 96-well plate, 37° C., 10 h) | MIC M. catarrhalis (Moraxella catarrhalis; 96-well plate, 37° C., 10 h) | MIC S. marcescens (Serratia marcescens; 96-well plate, 37° C., 10 h)
50 µg/mL: MIC P. aeruginosa (Pseudomonas aeruginosa; 96-well plate, 37° C., 10 h) | MIC A. hydrophila (Aeromonas hydrophila; 96-well plate, 37° C., 10 h) | MIC P. mirabilis (Proteus mirabilis; 96-well plate, 37° C., 10 h)

PRT79 (LPDPCDSNPCPANSYCSNDWDSYSCSCDPGYYGDNC; listed as Homo sapiens)
12.5 µg/mL: MIC (μg/mL) P. aeruginosa (Pseudomonas aeruginosa; [3]) | MIC (μg/mL) E. cloacae (Enterobacter cloacae; [5]) | MIC (μg/mL) C. diversus (Citrobacter diversus; [7]) | MIC (μg/mL) M. catarrhalis (Moraxella catarrhalis; [8]) | MIC (μg/mL) P. vulgaris (Proteus vulgaris; [10])
50 µg/mL: MIC (E. coli DH5α) | MIC (μg/mL) P. mirabilis (Proteus mirabilis; [9]) | MIC (μg/mL) S. marcescens (Serratia marcescens; [11])
25 µg/mL: MIC (μg/mL) E. coli BL21 (E. coli BL21; [2]) | MIC (μg/mL) K. pneumonia (Klebsiella pneumonia; [4]) | MIC (μg/mL) A. hydrophila (Aeromonas hydrophila; [6])

PRT808 (YGPNCSSICSCNNGGTCSPVDGSCTCKEGWQGLDCT; listed as Homo sapiens)
25 µg/mL: MIC (E. coli DH5α) | MIC (μg/mL) E. cloacae (Enterobacter cloacae; E. cloacae, 10 h cultivation at 37° C.) | MIC (μg/mL) C. diversus (Citrobacter diversus; C. diversus, 10 h cultivation at 37° C.) | MIC (μg/mL) P. mirabilis (Proteus mirabilis; P. mirabilis, 10 h cultivation at 37° C.)
50 µg/mL: MIC (μg/mL) E. coli BL21 (E. coli BL21; [1]) | MIC (μg/mL) K. pneumonia (Klebsiella pneumonia; K. pneumonia, 10 h cultivation at 37° C.) | MIC (μg/mL) M. catarrhalis (Moraxella catarrhalis; M. catarrhalis, 10 h cultivation at 37° C.) | MIC (μg/mL) S. marcescens (Serratia marcescens; S. marcescens, 10 h cultivation at 37° C.)
12.5 µg/mL: MIC (μg/mL) P. aeruginosa (Pseudomonas aeruginosa; P. aeruginosa, 10 h cultivation at 37° C.) | MIC (μg/mL) A. hydrophila (Aeromonas hydrophila; A. hydrophila, 10 h cultivation at 37° C.) | MIC (μg/mL) P. vulgaris (Proteus vulgaris; P. vulgaris, 10 h cultivation at 37° C.)
